Where no end group is shown, it is not given here.

The target in experiment [1] is T1, VEGFR-2 (Homo sapiens, UniProt P35968).
T1 construct: endogenous in cells; host or cells: HUVEC
The experiment is described as follows: pVEGFR AlphaLISA assay (VEGFR-2 phosphorylation, p-Tyr1175) in HUVECs. Format: cell-based. Conditions: 10 minutes stimulation, % activity, maximum VEGF165a signal = 100%, unstimulated = 0%, peptide 10, 100 nM (dimer structures 2-41). The method, boiled down: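 HUVECs grown 2 days, starved 18 hours in EBM-2 with 0.5% FBS, then stimulated 10 minutes at 37°C with peptide or VEGF165a (0.08–20 nM). VEGFR-2 p-Tyr1175 in lysates read by AlphaLISA; % activity scaled to maximal VEGF165a signal (100%) and unstimulated control (0%), binned by activity at tested peptide concentrations.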

For experiment [2], the system named is ERK. The experiment can be described thus: pERK AlphaLISA assay (ERK phosphorylation, p-Erk1/2 Thr202/Tyr204) in HUVEC lysate. The class given is cell-based, human. Conditions: HUVEC lysate of the pVEGFR assay; % activity, maximum VEGF165a signal = 100%, unstimulated = 0%; peptide 10, 100 nM (dimer structures 2-41). The protocol:
To evaluate the intracellular signaling activation ability of the VEGFR-2 agonist peptides of the present invention, ERK phosphorylation was verified. Using the lysate employed in the pVEGFR AlphaLISA assay, the assay was performed according to the protocol of the AlphaLISA SureFire Ultra p-Erk1/2 (Thr202/Tyr204) Assay Kit (PerkinElmer). Signal detection was performed using a SpectraMax Paradigm multimode microplate reader (Molecular Devices). The obtained signals were analyzed using GraphPad Prism, and % activity was calculated with the maximum signal induced by VEGF165a set as 100% and the unstimulated control as 0%.
The VEGF165a concentration was evaluated at five points (0.08, 0.31, 1.25, 5, 20 nM) using 1/4-fold dilutions starting from 20 nM to determine the maximum value (100%). Peptide concentrations tested were: 3.2, 16, 80 nM for dimer structure […], 100 nM for dimer structures numbers 2-41; and 1.25, 5, 20 nM for dimer structures numbers 42-57.
For % activity, peptides showing ≥50% activity at 3.2 nM were designated 1-A, those showing ≥50% activity at 16 nM were designated 1-B, those showing ≥50% activity at 80 nM were designated 1-C, and those showing ≥1% but <50% activity at 80 nM were designated 1-D. […]
On the technique in general: Alpha assays give light when donor and acceptor beads are brought close together.

Experiment [3] concerns HUVEC. The experiment can be described thus: HUVEC proliferation promotion evaluation (CellTiter-Glo). The class given is cell-based, human. The following applies: 2 days culture, % activity, maximum VEGF165a signal = 100%, peptide 1, 10, 100 nM. The protocol: To evaluate the biological activity of the VEGFR-2 agonist peptide of the present invention, an HUVEC proliferation promotion evaluation was conducted. HUVECs cultured as described above were detached using Tryple (Thermo Fisher Scientific). They were then seeded at 10,000 cells per well onto Nunc™ MicroWell™ 96 -Well, Nunclon Delta-Treated, Flat-Bottom Microplate (cat. #136101) . After 24 hours, cells were starved by replacing with EBM-2 medium (LONZA) containing 0.5% FBS (Thermo Fisher Scientific), 0.1% Heparin (included with the above Lonza CC-3162), and 0.1% Gentamicin (Nacalai) and cultured for 18 hours. Subsequently, Recombinant Human VEGF 165a Protein (R&D Systems) or the peptide was added, and the cells were cultured for 2 days at 37°C in a CO2 incubator. Assays were performed according to the CellTiter-Glo (Promega) kit protocol, and signals were detected using a SpectraMax Paradigm multimode microplate reader (Molecular Devices) was used for signal detection. The obtained signals were analyzed using GraphPad Prism, and % activity was calculated with the maximum signal induced by VEGF165a set as 100% and the unstimulated control as 0%.
The VEGF165a concentration was evaluated at six points (0.006, 0.03, 0.16, 0.8, 4, 20 nM) using 1/5-fold dilutions starting from 20 nM to determine the maximum value (100%). […]
Background: In ATP-based viability assays light output follows the ATP content of the culture.

T1 sequence (P35968 20-1356): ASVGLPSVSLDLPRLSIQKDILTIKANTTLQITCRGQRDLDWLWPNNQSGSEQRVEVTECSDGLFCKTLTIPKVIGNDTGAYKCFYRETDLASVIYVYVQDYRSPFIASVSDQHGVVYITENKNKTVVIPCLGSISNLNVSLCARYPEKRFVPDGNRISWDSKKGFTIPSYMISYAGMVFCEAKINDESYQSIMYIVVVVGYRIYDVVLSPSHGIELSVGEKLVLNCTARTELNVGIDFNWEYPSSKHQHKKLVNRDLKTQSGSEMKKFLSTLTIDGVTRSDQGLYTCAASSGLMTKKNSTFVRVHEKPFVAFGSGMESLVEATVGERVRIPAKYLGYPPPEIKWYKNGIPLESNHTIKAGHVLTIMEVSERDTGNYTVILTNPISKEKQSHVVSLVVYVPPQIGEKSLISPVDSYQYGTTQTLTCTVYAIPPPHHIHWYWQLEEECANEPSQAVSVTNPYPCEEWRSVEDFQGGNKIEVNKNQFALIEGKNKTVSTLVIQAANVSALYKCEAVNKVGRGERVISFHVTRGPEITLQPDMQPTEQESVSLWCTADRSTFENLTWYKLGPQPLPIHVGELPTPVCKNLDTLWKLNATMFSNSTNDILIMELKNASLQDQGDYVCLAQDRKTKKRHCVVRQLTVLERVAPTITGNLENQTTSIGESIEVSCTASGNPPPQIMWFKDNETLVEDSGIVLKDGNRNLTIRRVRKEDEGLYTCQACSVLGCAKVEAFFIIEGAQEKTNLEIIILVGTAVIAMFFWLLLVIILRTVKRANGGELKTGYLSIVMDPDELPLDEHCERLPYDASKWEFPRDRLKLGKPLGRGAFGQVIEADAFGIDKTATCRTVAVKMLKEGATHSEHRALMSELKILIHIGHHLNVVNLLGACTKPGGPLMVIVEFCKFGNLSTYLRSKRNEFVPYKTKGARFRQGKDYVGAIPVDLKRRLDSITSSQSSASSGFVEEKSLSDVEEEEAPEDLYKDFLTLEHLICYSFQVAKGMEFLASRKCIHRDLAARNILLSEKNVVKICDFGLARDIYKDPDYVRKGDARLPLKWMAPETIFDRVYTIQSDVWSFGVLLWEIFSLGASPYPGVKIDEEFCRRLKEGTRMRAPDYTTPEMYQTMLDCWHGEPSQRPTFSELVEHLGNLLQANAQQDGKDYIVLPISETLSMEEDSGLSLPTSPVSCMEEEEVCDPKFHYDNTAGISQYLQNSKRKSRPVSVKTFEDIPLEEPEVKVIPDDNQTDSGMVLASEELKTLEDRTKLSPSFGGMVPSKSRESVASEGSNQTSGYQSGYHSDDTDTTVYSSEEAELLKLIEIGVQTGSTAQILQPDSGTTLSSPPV

As for “Dimer Structure No. 1: complex of Peptide Sequence No. 3 (W-W-V-D-V-Q-D-D-L-Y-F-V-D-C-G) and Linker Structure No. 1 (PEG12c-K-PEG12c), Conjugation No. 15 (WWVDVQDDLYFVDCG; also: dimer via PEG12c-K-PEG12c linker)”, in experiment [1], the “pVEGFR2 Assay Results” value was 2-C (1% or more but less than 50% activity at 100 nM). Further, in experiment [2], the “pERK Assay Results” value is on record as 2-B (50% or more activity at 100 nM). Further, in experiment [3], the proliferation is 4-D (≥1% but <50% activity at 100 nM).

(Values after patent EP4748847A1, “PEPTIDE COMPLEX HAVING VEGFR -2 AGONIST ACTIVITY” (Peptidream Inc, priority 2023, dated 2025).)
